The values that follow come from US20260297085A1, “1 H-PYRROLO[2,3-B]PYRIDIN-4-YL]-2-OXOPYRROLIDINE-3-CARBONITRILE DERIVATIVES AS TYROSINE KINASE 2 (TYK2) INHIBITORS FOR THE TREATMENT OF INFLAMMATORY DISEASES” (BIOGEN MA INC., priority 2023, published 2026).

In test [1] the target is JAK2 kinase activity on STAT5 in TF1 cells (Homo sapiens, UniProt O60674). In words: pSTAT5 cell assay (MSD; TF1 cells, 30 ng/mL IL-3 stimulation). The test is classed as cell-based. Conditions: 30 ng/mL IL-3, 15 minutes. The essentials: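 Serum-starved TF1 cells with native JAK2/STAT5 were pretreated 1 h with compound (10-point four-fold dilutions from 10 μM), then stimulated 15 min with 30 ng/mL IL-3. pSTAT5 in lysates quantified by MSD immunoassay; normalized percent activity fitted to a 4-parameter logistic curve for IC50.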
Chain of JAK2 kinase activity on STAT5 in TF1 cells (O60674 whole entry): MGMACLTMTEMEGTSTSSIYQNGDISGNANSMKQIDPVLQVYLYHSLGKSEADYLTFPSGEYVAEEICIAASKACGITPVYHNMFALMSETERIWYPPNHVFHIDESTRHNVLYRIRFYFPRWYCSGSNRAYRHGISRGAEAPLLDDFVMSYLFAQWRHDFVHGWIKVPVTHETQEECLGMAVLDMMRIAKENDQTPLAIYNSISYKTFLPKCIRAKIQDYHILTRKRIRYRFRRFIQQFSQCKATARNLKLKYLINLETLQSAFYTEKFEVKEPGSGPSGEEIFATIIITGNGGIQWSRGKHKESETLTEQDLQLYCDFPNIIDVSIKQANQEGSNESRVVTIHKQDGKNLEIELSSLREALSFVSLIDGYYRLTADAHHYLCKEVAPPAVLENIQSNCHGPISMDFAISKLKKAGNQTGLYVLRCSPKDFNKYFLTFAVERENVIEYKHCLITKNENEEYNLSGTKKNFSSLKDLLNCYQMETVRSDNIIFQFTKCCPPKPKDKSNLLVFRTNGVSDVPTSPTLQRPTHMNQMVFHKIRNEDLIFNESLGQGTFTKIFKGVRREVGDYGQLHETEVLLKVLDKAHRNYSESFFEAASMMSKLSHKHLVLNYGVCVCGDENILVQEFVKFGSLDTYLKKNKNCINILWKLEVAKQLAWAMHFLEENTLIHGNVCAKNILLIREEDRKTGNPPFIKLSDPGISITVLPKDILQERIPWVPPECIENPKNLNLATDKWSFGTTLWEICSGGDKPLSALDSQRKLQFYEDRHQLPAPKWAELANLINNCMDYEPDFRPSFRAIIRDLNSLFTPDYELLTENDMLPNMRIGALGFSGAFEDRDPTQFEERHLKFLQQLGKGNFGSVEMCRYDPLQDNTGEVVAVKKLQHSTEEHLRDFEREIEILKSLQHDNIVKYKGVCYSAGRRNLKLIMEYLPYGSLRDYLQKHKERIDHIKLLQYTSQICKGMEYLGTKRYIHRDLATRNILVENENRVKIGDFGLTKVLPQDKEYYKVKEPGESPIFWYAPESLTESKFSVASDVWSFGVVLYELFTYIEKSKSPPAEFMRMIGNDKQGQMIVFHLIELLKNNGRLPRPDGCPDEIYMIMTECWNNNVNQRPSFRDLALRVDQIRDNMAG

Test [2] addresses T1, human TYK2 kinase domain (JH1) (Homo sapiens, UniProt P29597).
T1 construct: recombinantly generated catalytic kinase (also known as JH1) domain of human JAK1, JAK2, JAK3 and TYK2
T1 sequence (P29597 897-1176 limits assumed): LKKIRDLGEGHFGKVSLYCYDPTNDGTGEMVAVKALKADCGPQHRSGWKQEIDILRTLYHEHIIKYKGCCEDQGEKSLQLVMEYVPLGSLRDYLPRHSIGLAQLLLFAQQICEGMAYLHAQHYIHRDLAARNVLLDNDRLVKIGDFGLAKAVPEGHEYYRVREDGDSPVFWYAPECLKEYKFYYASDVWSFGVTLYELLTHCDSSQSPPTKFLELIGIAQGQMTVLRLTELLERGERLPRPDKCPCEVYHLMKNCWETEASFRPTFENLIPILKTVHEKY
In words: JH1 biochemical assay for TYK2 (ADP-Glo kinase assay, recombinant JH1 catalytic domain, JAK3-974 peptide, 10 μM ATP). Conditions: TYK2 JH1, ADP-Glo. The essentials:
(§1)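 Enzyme levels: JAK1 4 nM, JAK2 0.2 nM, JAK3 0.3 nM, TYK2 2 nM. Peptide substrate at 50 μM. Reactions ran 100 minutes; ADP formed was converted to luciferase luminescence after ATP depletion. Compounds tested from 10 μM or 1 μM top, 11-point 3-fold dilutions; IC50 from 4-parameter logistic fit of normalized percent activity.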

The target of test [3] is T2, human JAK3 kinase domain (JH1) (Homo sapiens, UniProt P52333).
T2 construct: recombinantly generated catalytic kinase (also known as JH1) domain of human JAK1, JAK2, JAK3 and TYK2
T2 sequence (P52333 822-1111 limits assumed): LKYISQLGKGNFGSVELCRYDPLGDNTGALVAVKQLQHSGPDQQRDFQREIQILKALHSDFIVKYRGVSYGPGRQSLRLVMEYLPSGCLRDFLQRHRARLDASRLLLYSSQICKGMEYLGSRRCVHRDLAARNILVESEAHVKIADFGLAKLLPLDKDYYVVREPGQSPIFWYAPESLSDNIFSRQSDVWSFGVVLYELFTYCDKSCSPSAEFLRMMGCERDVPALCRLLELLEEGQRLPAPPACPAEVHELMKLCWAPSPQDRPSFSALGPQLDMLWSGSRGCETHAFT
In words: JH1 biochemical assay for JAK3 (ADP-Glo kinase assay, recombinant JH1 catalytic domain, JAK3-974 peptide, 4 μM ATP). Conditions: JAK3 JH1, ADP-Glo. In short, it runs like this:
as §1

Test [4] concerns the target T3, human JAK1 kinase domain (JH1) (Homo sapiens, UniProt P23458).
T3 construct: recombinantly generated catalytic kinase (also known as JH1) domain of human JAK1, JAK2, JAK3 and TYK2
In words: JH1 biochemical assay for JAK1 (ADP-Glo kinase assay, recombinant JH1 catalytic domain, JAK3-342 peptide, 35 μM ATP). Conditions: JAK1 JH1, ADP-Glo. The essentials:
as §1

In test [5] the target is Tyk2 kinase activity on STAT4 in NK92 cells (Homo sapiens, UniProt P29597). Put plainly: pSTAT4 cell assay (MSD; NK92 cells, 30 ng/mL IL2 stimulation). The test is classed as cell-based. Conditions: 30 ng/mL IL2, 15 minutes. The essentials: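 IC50 values derive from 4-parameter logistic fits of normalized percent activity against log compound concentration. Phospho-STAT was measured by MSD with anti-STAT4 antibodies after 15 min of 30 ng/mL IL2 in serum-starved NK92 cells pretreated 1 hr with compound.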
Chain of Tyk2 kinase activity on STAT4 in NK92 cells (P29597 whole entry): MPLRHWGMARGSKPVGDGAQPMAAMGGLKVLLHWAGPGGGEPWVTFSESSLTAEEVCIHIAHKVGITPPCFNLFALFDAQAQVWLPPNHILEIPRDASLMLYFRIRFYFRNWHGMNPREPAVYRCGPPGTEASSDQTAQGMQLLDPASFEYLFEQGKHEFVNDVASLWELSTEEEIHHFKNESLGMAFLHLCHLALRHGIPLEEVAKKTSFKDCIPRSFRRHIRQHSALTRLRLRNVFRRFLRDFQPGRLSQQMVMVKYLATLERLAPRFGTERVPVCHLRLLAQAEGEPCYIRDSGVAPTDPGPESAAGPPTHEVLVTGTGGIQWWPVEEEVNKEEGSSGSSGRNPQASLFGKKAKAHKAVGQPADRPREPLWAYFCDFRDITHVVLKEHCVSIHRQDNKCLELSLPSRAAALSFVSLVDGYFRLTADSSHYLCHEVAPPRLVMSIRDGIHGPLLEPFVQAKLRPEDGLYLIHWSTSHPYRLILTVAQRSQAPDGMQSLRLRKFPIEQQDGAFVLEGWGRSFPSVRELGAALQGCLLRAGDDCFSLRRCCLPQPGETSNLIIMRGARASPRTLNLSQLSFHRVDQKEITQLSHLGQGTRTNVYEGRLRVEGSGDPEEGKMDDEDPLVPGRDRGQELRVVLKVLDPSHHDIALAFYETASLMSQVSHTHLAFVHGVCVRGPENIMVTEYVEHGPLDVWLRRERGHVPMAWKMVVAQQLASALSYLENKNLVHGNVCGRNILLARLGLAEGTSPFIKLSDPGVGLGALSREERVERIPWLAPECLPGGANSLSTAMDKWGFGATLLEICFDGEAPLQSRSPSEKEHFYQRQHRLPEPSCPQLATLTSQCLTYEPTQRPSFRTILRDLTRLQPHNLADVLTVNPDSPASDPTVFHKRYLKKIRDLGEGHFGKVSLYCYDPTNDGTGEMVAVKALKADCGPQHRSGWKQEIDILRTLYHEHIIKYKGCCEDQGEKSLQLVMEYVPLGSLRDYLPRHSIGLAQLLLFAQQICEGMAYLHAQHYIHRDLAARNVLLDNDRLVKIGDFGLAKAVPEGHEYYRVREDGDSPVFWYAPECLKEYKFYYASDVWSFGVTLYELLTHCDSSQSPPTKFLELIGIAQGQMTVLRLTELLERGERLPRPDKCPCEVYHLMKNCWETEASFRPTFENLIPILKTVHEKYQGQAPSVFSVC

In test [6] the target is JAK1 kinase activity on STAT3 in TF1 cells (Homo sapiens, UniProt P23458). In words: pSTAT3 cell assay (MSD; TF1 cells, 30 ng/mL IL-6 stimulation). The test is classed as cell-based. Conditions: 30 ng/mL IL-6, 15 minutes. The essentials: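 Serum-starved TF1 cells were pretreated with compound for 1 hour (10-point, four-fold dilutions from 10 μM), then stimulated with IL-6 for 15 minutes. Lysates were assayed for pSTAT3 by MSD with anti-STAT3 antibodies; IC50 came from a 4-parameter logistic fit of normalized percent activity.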
Chain of JAK1 kinase activity on STAT3 in TF1 cells (P23458 whole entry): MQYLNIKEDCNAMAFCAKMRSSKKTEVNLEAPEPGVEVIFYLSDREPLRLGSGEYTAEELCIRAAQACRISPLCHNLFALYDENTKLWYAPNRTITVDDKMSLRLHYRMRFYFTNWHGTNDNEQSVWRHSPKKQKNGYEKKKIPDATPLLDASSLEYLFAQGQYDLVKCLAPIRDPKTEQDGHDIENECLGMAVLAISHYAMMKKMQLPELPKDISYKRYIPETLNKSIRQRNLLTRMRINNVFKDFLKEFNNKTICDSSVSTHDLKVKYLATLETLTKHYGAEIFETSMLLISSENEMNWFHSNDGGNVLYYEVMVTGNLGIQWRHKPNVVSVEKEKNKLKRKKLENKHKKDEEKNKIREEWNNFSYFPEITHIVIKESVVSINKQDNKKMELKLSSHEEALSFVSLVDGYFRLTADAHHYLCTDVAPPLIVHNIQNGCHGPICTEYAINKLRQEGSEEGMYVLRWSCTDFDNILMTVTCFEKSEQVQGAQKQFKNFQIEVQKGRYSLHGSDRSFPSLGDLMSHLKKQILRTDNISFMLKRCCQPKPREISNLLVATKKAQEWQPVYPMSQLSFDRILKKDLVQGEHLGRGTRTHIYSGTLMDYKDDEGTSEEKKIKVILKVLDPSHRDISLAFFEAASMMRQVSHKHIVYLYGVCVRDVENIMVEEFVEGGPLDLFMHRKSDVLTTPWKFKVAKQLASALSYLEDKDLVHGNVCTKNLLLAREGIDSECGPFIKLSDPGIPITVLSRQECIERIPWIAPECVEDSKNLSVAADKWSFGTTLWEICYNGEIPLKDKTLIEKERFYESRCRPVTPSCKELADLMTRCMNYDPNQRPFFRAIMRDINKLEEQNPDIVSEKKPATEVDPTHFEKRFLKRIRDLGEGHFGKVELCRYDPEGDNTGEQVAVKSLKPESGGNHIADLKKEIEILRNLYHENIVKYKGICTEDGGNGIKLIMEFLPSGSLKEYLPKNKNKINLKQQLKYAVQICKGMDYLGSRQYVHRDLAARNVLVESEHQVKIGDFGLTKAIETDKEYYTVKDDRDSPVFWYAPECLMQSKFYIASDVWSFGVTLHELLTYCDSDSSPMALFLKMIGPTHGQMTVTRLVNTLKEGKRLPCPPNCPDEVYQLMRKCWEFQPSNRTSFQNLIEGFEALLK

The target of test [7] is T4, human JAK2 kinase domain (JH1) (Homo sapiens, UniProt O60674).
T4 construct: recombinantly generated catalytic kinase (also known as JH1) domain of human JAK1, JAK2, JAK3 and TYK2
T4 sequence (O60674 849-1124 limits assumed): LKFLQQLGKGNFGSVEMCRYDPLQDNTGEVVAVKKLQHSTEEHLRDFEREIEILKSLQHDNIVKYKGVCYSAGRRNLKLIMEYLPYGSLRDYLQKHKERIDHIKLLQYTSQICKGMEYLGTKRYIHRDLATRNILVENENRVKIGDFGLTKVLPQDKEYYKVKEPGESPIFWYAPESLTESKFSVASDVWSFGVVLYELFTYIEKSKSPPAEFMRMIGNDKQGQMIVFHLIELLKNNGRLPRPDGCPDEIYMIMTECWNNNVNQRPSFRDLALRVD
In words: JH1 biochemical assay for JAK2 (ADP-Glo kinase assay, recombinant JH1 catalytic domain, JAK3-974 peptide, 15 μM ATP). Conditions: JAK2 JH1, ADP-Glo. In short, it runs like this: as §1

Molecules are shown by their SMILES.

T3 sequence (P23458 875-1153 limits assumed): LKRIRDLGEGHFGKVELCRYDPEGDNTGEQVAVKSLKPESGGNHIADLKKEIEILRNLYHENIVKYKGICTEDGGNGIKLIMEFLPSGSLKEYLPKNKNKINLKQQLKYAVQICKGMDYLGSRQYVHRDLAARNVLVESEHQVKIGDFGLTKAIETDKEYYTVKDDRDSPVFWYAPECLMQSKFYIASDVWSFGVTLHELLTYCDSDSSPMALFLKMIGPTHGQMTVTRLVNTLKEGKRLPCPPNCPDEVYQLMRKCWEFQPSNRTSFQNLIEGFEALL

Take `C[C@@H]1CN(c2nc(-c3cnn(-c4cccnc4)c3)cn3nccc23)C(=O)[C@]1(C#N)C1CC1` [Example 294, (3R,4S)-3-cyclopropyl-4-methyl-2-oxo-1-(6-(1-(pyridin-3-yl)-1H-pyrazol-4-yl)pyrazolo[1,5-a]pyrazin-4-yl)pyrrolidine-3-carbonitrile]: the IC50 in test [1] is 100 to 1000 nM; in test [2] it was below 5 nM; in test [3], below 100 nM; in test [4], below 100 nM; in test [5], 20 to 50 nM; in test [6] it was 100 to 1000 nM. In test [7], the IC50 is below 100 nM.
As to `C[C@@H]1CN(c2nc(-c3cnn(-c4ccncc4)c3)cn3nccc23)C(=O)[C@]1(C#N)C1CC1` [Example 295, (3R,4S)-3-cyclopropyl-4-methyl-2-oxo-1-(6-(1-(pyridin-4-yl)-1H-pyrazol-4-yl)pyrazolo[1,5-a]pyrazin-4-yl)pyrrolidine-3-carbonitrile], the IC50 in test [1] is 100 to 1000 nM; in test [2], below 5 nM; in test [3], below 100 nM; in test [4], below 100 nM; in test [5] it was 20 to 50 nM; in test [6] it was 100 to 1000 nM. The IC50 in test [7] is below 100 nM.
`C[C@@H]1CN(c2nc(-c3cnn(-c4ccccn4)c3)cn3nccc23)C(=O)[C@]1(C#N)C1CC1` [Example 296, (3R,4S)-3-cyclopropyl-4-methyl-2-oxo-1-(6-(1-(pyridin-2-yl)-1H-pyrazol-4-yl)pyrazolo[1,5-a]pyrazin-4-yl)pyrrolidine-3-carbonitrile]: the IC50 in test [1] was 1000 to 5000 nM; in test [2], below 5 nM; in test [3] it was below 100 nM; in test [4], below 100 nM; in test [5], 20 to 50 nM; in test [6] it was 100 to 1000 nM. For the same compound, the IC50 in test [7] was in the range of 100 to 1000 nM.
With `C[C@@H]1CN(c2nc(-c3cnn(C45CC(C#N)(C4)C5)c3)cn3ncc(F)c23)C(=O)[C@]1(C#N)C1CC1` [Example 297, (3R,4S)-1-(6-(1-(3-cyanobicyclo[1.1.1]pentan-1-yl)-1H-pyrazol-4-yl)-3-fluoropyrazolo[1,5-a]pyrazin-4-yl)-3-cyclopropyl-4-methyl-2-oxopyrrolidine-3-carbonitrile], the half-inhibitory concentration (IC50) in test [1] is 1000 to 5000 nM; in test [2], below 5 nM; in test [3] it was below 100 nM; in test [4], below 100 nM; in test [5] it was above 100 nM; in test [6], 1000 to 5000 nM. Besides, the IC50 in test [7] is below 100 nM.
Consider `C[C@@H]1CN(c2nc(-c3cnn(C4CC5(COC5)C4)c3)cn3ncc(F)c23)C(=O)[C@]1(C#N)C1CC1` [Example 298, (3R,4S)-1-(6-(1-(2-oxaspiro[3.3]heptan-6-yl)-1H-pyrazol-4-yl)-3-fluoropyrazolo[1,5-a]pyrazin-4-yl)-3-cyclopropyl-4-methyl-2-oxopyrrolidine-3-carbonitrile], for which the IC50 is 100 to 1000 nM in test [1]; below 5 nM in test [2]; below 100 nM in test [3]; below 100 nM in test [4]; 50 to 100 nM in test [5]; 100 to 1000 nM in test [6]. In addition, in test [7], the IC50 was below 100 nM.
Consider `CO[C@H]1C[C@H](n2cc(-c3cn4ncc(F)c4c(N4C[C@@H](C)[C@@](C#N)(C5CC5)C4=O)n3)cn2)C1` [Example 299, (3R,4S)-3-cyclopropyl-1-(3-fluoro-6-(1-((1r,3R)-3-methoxycyclobutyl)-1H-pyrazol-4-yl)pyrazolo[1,5-a]pyrazin-4-yl)-4-methyl-2-oxopyrrolidine-3-carbonitrile], for which the IC50 in test [1] is 100 to 1000 nM; in test [2], below 5 nM; in test [3] it was below 100 nM; in test [4], below 100 nM; in test [5], 50 to 100 nM; in test [6], 100 to 1000 nM. In test [7], the IC50 is below 100 nM.
As to `C[C@@H]1CN(c2nc(-c3cnn(C4(C)COC4)c3)cn3ncc(F)c23)C(=O)[C@]1(C#N)C1CC1` [Example 300, (3R,4S)-3-cyclopropyl-1-(3-fluoro-6-(1-(3-methyloxetan-3-yl)-1H-pyrazol-4-yl)pyrazolo[1,5-a]pyrazin-4-yl)-4-methyl-2-oxopyrrolidine-3-carbonitrile], the IC50 is 1000 to 5000 nM in test [1]; below 5 nM in test [2]; below 100 nM in test [3]; below 100 nM in test [4]; above 100 nM in test [5]; 100 to 1000 nM in test [6]. In addition, the IC50 in test [7] fell in the range of 100 to 1000 nM.
In the case of `C[C@@H]1CN(c2nc(-c3cnn([C@H]4C[C@@](C)(O)C4)c3)cn3ncc(F)c23)C(=O)[C@]1(C#N)C1CC1` [Example 301, (3R,4S)-3-cyclopropyl-1-(3-fluoro-6-(1-((1s,3 S)-3-hydroxy-3-methylcyclobutyl)-1H-pyrazol-4-yl)pyrazolo[1,5-a]pyrazin-4-yl)-4-methyl-2-oxopyrrolidine-3-carbonitrile], the IC50 is 100 to 1000 nM in test [1]; below 5 nM in test [2]; below 100 nM in test [3]; below 100 nM in test [4]; 50 to 100 nM in test [5]; 100 to 1000 nM in test [6]. In addition, the IC50 in test [7] is below 100 nM.
As to `C[C@@H]1CN(c2nc(-c3cnn(CC4(C#N)CC4)c3)cn3ncc(F)c23)C(=O)[C@]1(C#N)C1CC1` [Example 302, (3R,4S)-1-(6-(1-((1-cyanocyclopropyl)methyl)-1H-pyrazol-4-yl)-3-fluoropyrazolo[1,5-a]pyrazin-4-yl)-3-cyclopropyl-4-methyl-2-oxopyrrolidine-3-carbonitrile], the IC50 is 1000 to 5000 nM in test [1]; below 5 nM in test [2]; below 100 nM in test [3]; below 100 nM in test [4]; 50 to 100 nM in test [5]; 100 to 1000 nM in test [6]. Moreover, in test [7], the IC50 is below 100 nM.
On to `C[C@@H]1CN(c2nc(-c3cnn(CC4COC4)c3)cn3ncc(F)c23)C(=O)[C@]1(C#N)C1CC1` [Example 304, (3R,4S)-3-cyclopropyl-1-(3-fluoro-6-(1-(oxetan-3-ylmethyl)-1H-pyrazol-4-yl)pyrazolo[1,5-a]pyrazin-4-yl)-4-methyl-2-oxopyrrolidine-3-carbonitrile], for which the IC50 in test [1] was 1000 to 5000 nM; in test [2] it was below 5 nM; in test [3] it was below 100 nM; in test [4], below 100 nM; in test [5], 50 to 100 nM; in test [6], 100 to 1000 nM. Besides, the IC50 in test [7] is below 100 nM.
In the case of `C[C@@H]1CN(c2nc(-c3cnn([C@H]4C[C@@](C)(C#N)C4)c3)cn3ncc(F)c23)C(=O)[C@]1(C#N)C1CC1` [Example 307, (3R,4S)-1-(6-(1-((1s,3S)-3-cyano-3-methylcyclobutyl)-1H-pyrazol-4-yl)-3-fluoropyrazolo[1,5-a]pyrazin-4-yl)-3-cyclopropyl-4-methyl-2-oxopyrrolidine-3-carbonitrile], the IC50 in test [1] is 1000 to 5000 nM; in test [2], below 5 nM; in test [3], below 100 nM; in test [4], below 100 nM; in test [5] it was 50 to 100 nM; in test [6], 100 to 1000 nM. Besides, in test [7], the IC50 was below 100 nM.
